Measured values from patent publication US8592470B2 (Eisai R&D Management Co., Ltd., priority 2012, dated 2013).

Tests used:
[1] = molecular target: T1, endothelin receptor A (EDNRA) (Homo sapiens, UniProt P25101); assay: Suppression of endothelin-induced Ca2+ elevation in EDNRA/293 cells; format: cell-based; conditions: 0.03, 0.1 or 0.3 nM endothelin, FIG. 2 and FIG. 3
T1 construct: The protein coding region of human derived EDNRA (gene number NM_001957.2) was transduced; expressed in transfected cells
T1 sequence (P25101 21-427): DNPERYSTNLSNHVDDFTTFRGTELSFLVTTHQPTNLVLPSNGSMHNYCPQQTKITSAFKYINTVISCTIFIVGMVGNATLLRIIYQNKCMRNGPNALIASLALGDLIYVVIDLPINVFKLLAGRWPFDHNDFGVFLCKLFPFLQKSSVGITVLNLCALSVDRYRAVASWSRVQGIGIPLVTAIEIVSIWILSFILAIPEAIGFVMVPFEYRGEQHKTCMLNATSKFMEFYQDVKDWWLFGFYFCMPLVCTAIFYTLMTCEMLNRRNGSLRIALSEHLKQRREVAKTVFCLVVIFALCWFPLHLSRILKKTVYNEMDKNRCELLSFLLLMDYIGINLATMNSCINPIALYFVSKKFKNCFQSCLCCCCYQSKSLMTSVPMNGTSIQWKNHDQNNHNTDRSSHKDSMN
Text: The protein coding region of human derived EDNRA (gene number NM_001957.2) was transduced into HEK-293 (Human Embryonic Kidney, ATCC No. CRL-1573) cells with a murine leukemia retrovirus vector, to prepare a cell line stably expressing EDNRA (EDNRA/293 cells). DMEM (Dulbecco's Modified Eagle Medium) supplemented with 10% fetal bovine serum and penicillin and streptomycin was used as the culture medium.
One day before measurement, the EDNRA/293 cells were inoculated on a 384-well plate at 5000 cells/well. On the day of measurement, a fluorescent reagent for calcium measurement (Calcium4, Molecular Device) dissolved in Hanks balanced buffer solution was added to each well, and allowed standing for about 1 hour.
Endothelin, an EDNRA ligand (activator) was applied to the wells not treated with the specimens, and the resulting activation (calcium elevation) reaction was detected by a measuring instrument (FDSS7000, Hamamatsu Photonics) to obtain a dose-dependent activation reaction as shown in FIG. 1. At doses of 1 nM or more, the activation reaction became almost saturated. For this reason, the doses of endothelin used for detection in the suppression reactions below were set at 0.03, 0.1 or 0.3 nM.

CYP1A2 [2] = molecular target: T2, CYP1A2 (Homo sapiens, UniProt P05177); assay: Competitive CYP inhibition (Method 2), human hepatic microsome; format: in vitro ADME; conditions: phenacetin 10 μM, n = 2, read-out: IC50 score, CYP1A2
T2 construct: human hepatic microsomal fraction containing CYP; from tissue; host or cells: human liver microsomes
T2 sequence (P05177 1-516): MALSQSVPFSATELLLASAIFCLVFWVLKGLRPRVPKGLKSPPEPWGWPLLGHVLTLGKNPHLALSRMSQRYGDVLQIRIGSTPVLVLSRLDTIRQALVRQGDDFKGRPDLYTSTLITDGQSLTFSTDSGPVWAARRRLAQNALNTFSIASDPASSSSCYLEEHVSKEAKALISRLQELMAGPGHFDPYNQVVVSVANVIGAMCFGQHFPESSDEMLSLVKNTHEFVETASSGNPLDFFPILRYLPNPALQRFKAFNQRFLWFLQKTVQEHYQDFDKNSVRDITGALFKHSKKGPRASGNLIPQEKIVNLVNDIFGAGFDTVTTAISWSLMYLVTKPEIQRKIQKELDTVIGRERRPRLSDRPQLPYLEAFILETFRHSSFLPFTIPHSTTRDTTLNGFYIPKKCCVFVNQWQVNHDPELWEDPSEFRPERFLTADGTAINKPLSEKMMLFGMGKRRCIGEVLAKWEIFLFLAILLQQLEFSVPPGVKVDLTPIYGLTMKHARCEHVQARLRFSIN
Method: (§1) The test substance was added at a final concentration of 1 or 10 μM to an enzyme solution (containing human hepatic microsome (0.2 mg/mL), 100 mM Kpi and 0.1 mM EDTA) containing a model substrate solution, and incubated for 10 minutes at 37° C. in the presence of an NADPH generating system. An equal amount of a mixed solution of acetonitrile and methanol (1:1, containing 0.05 μM dextrophan or 0.05 μM propranolol as an internal standard) was added to terminate the reaction, and metabolites of the model substrate in the reaction solution were measured by LC-MS/MS. A similar test was performed without addition of the test substance as a control test. The inhibition rate was determined from the amounts of model substrate metabolites with and without addition of the test substance at each test substance concentration, and the IC50 value was calculated from the inhibition rate (calculation method in accordance with Xenobiotica, 1999, 29(1), 53-75). […] [table]

CYP2C19 [3] = molecular target: T3, CYP2C19 (Homo sapiens, UniProt P33261); assay: as above; format: in vitro ADME; conditions: S-mephenytoin 40 μM, n = 2, read-out: IC50 score, CYP2C19
T3 construct: human hepatic microsomal fraction containing CYP; from tissue; host or cells: human liver microsomes
T3 sequence (P33261 whole entry): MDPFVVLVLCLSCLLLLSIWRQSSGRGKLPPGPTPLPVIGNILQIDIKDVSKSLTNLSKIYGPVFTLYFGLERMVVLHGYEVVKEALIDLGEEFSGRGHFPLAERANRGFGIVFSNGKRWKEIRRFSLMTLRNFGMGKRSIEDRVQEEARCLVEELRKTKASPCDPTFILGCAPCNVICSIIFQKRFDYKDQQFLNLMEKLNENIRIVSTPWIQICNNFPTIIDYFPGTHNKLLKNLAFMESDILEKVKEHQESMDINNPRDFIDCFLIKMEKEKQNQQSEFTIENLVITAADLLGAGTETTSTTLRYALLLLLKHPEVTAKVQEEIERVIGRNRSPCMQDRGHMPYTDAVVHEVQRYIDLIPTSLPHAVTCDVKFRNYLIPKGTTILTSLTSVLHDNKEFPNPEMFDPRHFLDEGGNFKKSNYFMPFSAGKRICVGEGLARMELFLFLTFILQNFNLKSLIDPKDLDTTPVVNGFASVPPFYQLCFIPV
Method: as §1

CYP2C9 [4] = molecular target: T4, CYP2C9 (Homo sapiens, UniProt P11712); assay: as above; format: in vitro ADME; conditions: human liver microsomes, probe tolbutamide 100 μM, n = 2, read-out: IC50 score, CYP2C9
T4 construct: human hepatic microsomal fraction containing CYP; from tissue; host or cells: human liver microsomes
T4 sequence (P11712 whole entry): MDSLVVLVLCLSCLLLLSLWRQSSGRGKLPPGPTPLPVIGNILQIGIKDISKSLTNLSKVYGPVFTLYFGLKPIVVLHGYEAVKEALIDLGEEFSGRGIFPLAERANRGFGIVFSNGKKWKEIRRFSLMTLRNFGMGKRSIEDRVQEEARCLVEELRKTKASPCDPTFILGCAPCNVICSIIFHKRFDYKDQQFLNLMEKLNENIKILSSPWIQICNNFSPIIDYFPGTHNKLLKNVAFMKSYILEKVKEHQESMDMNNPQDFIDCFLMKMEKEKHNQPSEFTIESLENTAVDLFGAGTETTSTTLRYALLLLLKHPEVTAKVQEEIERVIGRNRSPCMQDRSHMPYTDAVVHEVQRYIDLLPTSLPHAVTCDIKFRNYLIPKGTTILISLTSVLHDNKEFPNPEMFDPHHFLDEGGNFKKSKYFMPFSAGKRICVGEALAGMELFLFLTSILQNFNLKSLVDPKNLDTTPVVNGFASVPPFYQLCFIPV
Method: as §1

CYP2D6 [5] = molecular target: T5, CYP2D6 (Homo sapiens, UniProt P10635); assay: as above; format: in vitro ADME; conditions: bufuralol 10 μM, n = 2, read-out: IC50 score, CYP2D6
T5 construct: human hepatic microsomal fraction containing CYP; from tissue; host or cells: human liver microsomes
T5 sequence (P10635 whole entry): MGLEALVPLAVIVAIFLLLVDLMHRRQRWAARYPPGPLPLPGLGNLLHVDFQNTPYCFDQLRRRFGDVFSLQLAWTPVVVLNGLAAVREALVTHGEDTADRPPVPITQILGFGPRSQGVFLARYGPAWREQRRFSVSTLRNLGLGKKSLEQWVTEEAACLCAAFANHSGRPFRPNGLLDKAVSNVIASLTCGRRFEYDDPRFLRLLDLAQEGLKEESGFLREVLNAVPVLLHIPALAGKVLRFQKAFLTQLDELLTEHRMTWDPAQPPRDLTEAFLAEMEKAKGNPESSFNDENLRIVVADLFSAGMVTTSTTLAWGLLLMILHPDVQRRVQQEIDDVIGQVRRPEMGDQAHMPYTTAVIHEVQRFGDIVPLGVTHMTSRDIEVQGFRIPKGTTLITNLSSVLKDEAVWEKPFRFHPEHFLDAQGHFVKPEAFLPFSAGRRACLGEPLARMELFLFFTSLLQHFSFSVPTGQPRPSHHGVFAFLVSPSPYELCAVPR
Method: as §1

CYP1A2 [6] = molecular target: T2, CYP1A2; assay: Time-dependent CYP inhibition (Method 1), human hepatic microsome; format: in vitro ADME; conditions: 30 min pre-incubation at 37° C., phenacetin, average, n = 2
Method: (§2) Competitive inhibition of CYP was also tested as Method 2. […] The test substance was added to an enzyme solution (containing human hepatic microsome (0.2 mg/mL), 100 mM Kpi and 0.1 mM EDTA), and pre-incubated for 30 minutes at 37° C. in the presence of or absence of the coenzyme. The final concentration of the test substance was set at 0.1, 0.2, 0.4, 0.5, 1, 2, 10 or 50 μM. A NADPH generating system (60 mM MgCl2 solution containing 3.6 mM β-NADP^+, 90 mM glucose-6-phosphate and 1 Unit/mL glucose-6-phosphate dehydrogenase, incubated for 5 minutes to generate NADPH) was used as the coenzyme. After pre-incubation, part of the reaction solution was collected, diluted 10 times by mixing with a model substrate solution and the NADPH generating system, and then incubated for 10 minutes at 37° C. An equal amount of a mixed solution of acetonitrile and methanol (1:1, containing 0.05 μM dextrophan or 0.05 μM propranolol as an internal standard) was added to terminate the reaction, and metabolites of the model substrate in the reaction solution were measured by LC-MS/MS. A similar test was also performed with no test substance added as a control test. The ratio relative to the amount of model substrate metabolites in the control test was given as residual activity. The ratio of residual activity in the presence of NADPH relative to residual activity in the absence of NADPH was evaluated, and the ratio of 80% or less was defined “+”, while the ratio of above 80% was defined as “−”. [table]

CYP2C9 [7] = molecular target: T4, CYP2C9; assay: as above; format: in vitro ADME; conditions: 30 min pre-incubation at 37° C., tolbutamide, average, n = 2
Method: as §2

CYP3A4 [8] = molecular target: T6, CYP3A4 (Homo sapiens, UniProt P08684); assay: as above; format: in vitro ADME; conditions: 30 min pre-incubation at 37° C., midazolam, average, n = 2
T6 construct: human hepatic microsomal fraction containing CYP; from tissue; host or cells: human liver microsomes
T6 sequence (P08684 whole entry): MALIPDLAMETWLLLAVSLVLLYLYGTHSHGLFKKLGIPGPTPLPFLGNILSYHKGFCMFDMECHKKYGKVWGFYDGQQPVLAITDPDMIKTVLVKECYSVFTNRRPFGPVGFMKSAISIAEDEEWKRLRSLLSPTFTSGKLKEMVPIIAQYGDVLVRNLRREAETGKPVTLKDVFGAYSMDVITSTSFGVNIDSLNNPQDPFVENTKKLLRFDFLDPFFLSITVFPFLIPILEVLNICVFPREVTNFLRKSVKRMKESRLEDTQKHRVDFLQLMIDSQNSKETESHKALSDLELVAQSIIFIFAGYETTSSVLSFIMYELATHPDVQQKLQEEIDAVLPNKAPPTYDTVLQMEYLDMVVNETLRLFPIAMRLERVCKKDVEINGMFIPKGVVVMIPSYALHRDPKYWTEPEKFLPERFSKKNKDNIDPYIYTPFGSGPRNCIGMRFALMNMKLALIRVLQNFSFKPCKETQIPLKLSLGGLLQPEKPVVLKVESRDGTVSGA
Method: as §2

CYP2D6 [9] = molecular target: T5, CYP2D6; assay: as above; format: in vitro ADME; conditions: 30 min pre-incubation at 37° C., bufuralol, average, n = 2
Method: as §2

CYP2C19 [10] = molecular target: T3, CYP2C19; assay: as above; format: in vitro ADME; conditions: 30 min pre-incubation at 37° C., S-mephenytoin, average, n = 2
CYP3A4 [11] = molecular target: T6, CYP3A4; assay: Competitive CYP inhibition (Method 2), human hepatic microsome; format: in vitro ADME; conditions: midazolam 3 μM, n = 2, read-out: IC50 score, CYP3A4
Method: The inhibition rate was determined from the amounts of model substrate metabolites with and without addition of the test substance at each test substance concentration, and the IC50 value was calculated from the inhibition rate (calculation method in accordance with Xenobiotica, 1999, 29(1), 53-75).

Suppression of activation (calcium elevation) reaction by endothelin [1] | IC50 (CYP1A2 [2]) [µM] | IC50 (CYP2C19 [3]) [µM] | IC50 at 10 min (CYP2C9 [4]) [µM] | IC50 (CYP2D6 [5]) [µM] | IC50 (CYP3A4 [11]) [µM] | Compound | Ratio of residual CYP1A2 activity in presence of NADPH relative to absence of NADPH (CYP1A2 [6]; test substance 10 μM) | Ratio of residual CYP1A2 activity in presence of NADPH relative to absence of NADPH (CYP1A2 [6]; test substance 50 μM) | Ratio of residual CYP2C9 activity in presence of NADPH relative to absence of NADPH (CYP2C9 [7]; test substance 10 μM) | Ratio of residual CYP2C9 activity in presence of NADPH relative to absence of NADPH (CYP2C9 [7]; test substance 50 μM) | Ratio of residual CYP3A4 activity in presence of NADPH relative to absence of NADPH (CYP3A4 [8]; test substance 10 μM) | Ratio of residual CYP3A4 activity in presence of NADPH relative to absence of NADPH (CYP3A4 [8]; test substance 50 μM) | Ratio of residual CYP2D6 activity in presence of NADPH relative to absence of NADPH (CYP2D6 [9]; test substance 10 μM) | Ratio of residual CYP2D6 activity in presence of NADPH relative to absence of NADPH (CYP2D6 [9]; test substance 50 μM) | Ratio of residual CYP2C19 activity in presence of NADPH relative to absence of NADPH (CYP2C19 [10]; test substance 10 μM) | Ratio of residual CYP2C19 activity in presence of NADPH relative to absence of NADPH (CYP2C19 [10]; test substance 50 μM)
suppressed the activation reaction | > 10 | 1 to 10 | < 1 | > 10 |  | Cc1cc2c(cc1CC(=O)c1sccc1S(=O)(=O)Nc1onc(C)c1Cl)OCO2 [Sitaxentan, N-(4-chloro-3-methyl-1,2-oxazol-5-yl)-2-[2-(6-methyl-2H-1,3-benzodioxol-5-yl)acetyl]thiophene-3-sulfonamide, reference compound] |  |  |  |  |  |  |  |  |  | 
suppressed the activation reaction | > 10 | > 10 | < 1 | > 10 | > 10 | Cc1cc2c(cc1CC(=O)c1sccc1S(=O)(=O)Nc1onc(C)c1Cl)COC2 [Example 1, N-(4-chloro-3-methyl-1,2-oxazol-5-yl)-2-[2-(6-methyl-1,3-dihydro-2-benzofuran-5-yl)acetyl]thiophene-3-sulfonamide] | − (the ratio of above 80% was defined as “−”) | − (the ratio of above 80% was defined as “−”) | − (the ratio of above 80% was defined as “−”) | − (the ratio of above 80% was defined as “−”) | − (the ratio of above 80% was defined as “−”) | + (the ratio of 80% or less was defined “+”) | − (the ratio of above 80% was defined as “−”) | − (the ratio of above 80% was defined as “−”) | − (the ratio of above 80% was defined as “−”) | − (the ratio of above 80% was defined as “−”)
